biological target: T1, Nuclear receptor ROR-gamma (Mus musculus) (UniProt P51450); experiment: Modulation of RORgammat in mouse Th17 cells assessed as […] IL17A production at 3 uM relative to control; type: cell-based
T1 sequence (whole entry): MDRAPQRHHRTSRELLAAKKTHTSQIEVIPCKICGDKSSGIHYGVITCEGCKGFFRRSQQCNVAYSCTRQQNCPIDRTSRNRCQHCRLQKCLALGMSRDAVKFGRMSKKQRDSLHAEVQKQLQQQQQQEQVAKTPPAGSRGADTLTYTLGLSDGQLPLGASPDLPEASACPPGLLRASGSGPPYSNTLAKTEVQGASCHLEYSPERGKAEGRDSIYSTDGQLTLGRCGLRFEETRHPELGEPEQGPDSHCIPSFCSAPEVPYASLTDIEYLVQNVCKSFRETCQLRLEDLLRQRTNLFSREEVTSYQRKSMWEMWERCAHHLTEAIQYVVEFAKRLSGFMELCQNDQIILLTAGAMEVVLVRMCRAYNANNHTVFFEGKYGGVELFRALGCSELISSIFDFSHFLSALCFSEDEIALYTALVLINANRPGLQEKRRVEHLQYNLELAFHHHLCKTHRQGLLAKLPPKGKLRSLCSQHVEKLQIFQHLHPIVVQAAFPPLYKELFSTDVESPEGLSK

Structure (SMILES)	Activity [%]
CCS(=O)(=O)c1ccc(CNC(=O)c2ccc3c(n2)CCCN3c2cc(C3CC3)nc(C3CC3)c2)nc1	533
CS(=O)(=O)c1ccc(CNC(=O)c2ccc3c(n2)OCCN3c2cc(C3CC3)nc(C3CC3)c2)c(F)c1	324
CS(=O)(=O)c1ccc(C(CO)NC(=O)c2ccc3c(n2)CCCN3c2cc(C3CC3)nc(C3CC3)c2)cc1 (stereo not drawn)	533
CS(=O)(=O)c1ccc(CNC(=O)c2ccc3c(n2)CCCN3c2cc(C3CC3)nc(C3CC3)c2)c(C(N)=O)c1	483
CCOC(=O)c1cc(S(=O)(=O)CC)ccc1CNC(=O)c1ccc2c(n1)CCCN2c1cc(C2CC2)nc(C2CC2)c1	572

Further lines, results first:

Activity [%]	Structure (SMILES)
452	CS(=O)(=O)c1ccc(CNC(=O)c2ccc3c(n2)CCCN3c2cc(C3CC3)nc(C3CC3)c2)nc1
373	CS(=O)(=O)c1ccc(CNC(=O)c2ccc3c(n2)OCCN3c2cc(C3CC3)nc(C3CC3)c2)cc1
443	CS(=O)(=O)c1ccc(CNC(=O)c2ccc3c(c2)OCCC3c2cc(C3CC3)nc(C3CC3)c2)nc1 (stereo not drawn)
